The record followed here is patent US20260035367A1 (Celgene Corporation, priority 2021, published 2026).

The subject of experiment [1] is IL-2 secretion by human effector memory T cells (TEM). The experiment in a line: Effector memory T cells IL-2 release assay (CD3/CD28 stimulation, HTRF IL-2 detection). The note with it: Homo sapiens, T-cell, 24 h. Format: cell-based. In short, it runs like this: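 IL-2 released into the supernatant was quantified by HTRF after 24 h at 37 °C in 5% CO2. The cells were stimulated primary human TEM from donor buffy coats, treated with a 10-point semi-log compound series (0.1% DMSO final, triplicates).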
(In general: In TR-FRET formats the signal depends on donor and acceptor labels being close together.)

Experiment [2] deals with T1, Recombinant human PKC-delta (His-tagged 345-676) (Homo sapiens, UniProt Q05655).
T1 construct: PKC-delta (His-tagged 345-676); His
T1 sequence (Q05655 345-676): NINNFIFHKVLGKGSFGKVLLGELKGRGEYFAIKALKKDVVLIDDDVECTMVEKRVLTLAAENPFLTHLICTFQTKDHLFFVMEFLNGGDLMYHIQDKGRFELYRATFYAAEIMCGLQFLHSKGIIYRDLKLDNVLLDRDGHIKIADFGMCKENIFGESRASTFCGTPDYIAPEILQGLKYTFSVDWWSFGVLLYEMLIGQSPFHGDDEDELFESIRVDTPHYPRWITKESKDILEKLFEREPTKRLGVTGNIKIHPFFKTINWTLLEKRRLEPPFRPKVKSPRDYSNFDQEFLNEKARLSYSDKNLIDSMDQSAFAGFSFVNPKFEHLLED
Nature of the experiment: PKC-delta inhibition assay (HTRF KinEASE kit). Format: biochemical. The note with it: ratio, PKC-theta vs PKC-delta HTRF; for PKC-theta/PKC-delta selectivity (binned): binned A to G.

The target of experiment [3] is T2, Recombinant human PKC-theta (His-tagged 362-706) (Homo sapiens, UniProt Q04759).
T2 construct: Recombinant human PKC-theta (His-tagged 362-706); His
T2 sequence (Q04759 362-706): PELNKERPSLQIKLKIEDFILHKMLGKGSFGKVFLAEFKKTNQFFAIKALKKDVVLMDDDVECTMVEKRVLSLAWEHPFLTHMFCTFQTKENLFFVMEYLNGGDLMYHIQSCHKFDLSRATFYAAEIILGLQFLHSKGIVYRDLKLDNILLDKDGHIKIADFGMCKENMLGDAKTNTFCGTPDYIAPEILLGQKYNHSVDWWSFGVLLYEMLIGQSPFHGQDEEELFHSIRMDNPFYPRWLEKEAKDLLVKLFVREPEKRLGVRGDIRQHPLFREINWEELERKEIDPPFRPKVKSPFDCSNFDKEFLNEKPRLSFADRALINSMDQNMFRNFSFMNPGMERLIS
Nature of the experiment: PKC-theta inhibition assay (HTRF KinEASE kit). The note with it: ATP 6.5 μM, STK substrate 525 nM. Type of experiment: biochemical. The gist of the method:
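IC50 values were from 4-parameter logistic fits of percent inhibition, based on acceptor/donor HTRF ratios over 10 semi-log compound doses. Kinase reactions, started with substrate plus ATP, ran 30 min at 25 °C in buffer supplemented with 10 mM MgCl2, 1 mM DTT and 0.1% Tween 20; detection lasted 2 h.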

Where [4] appears, read: binned A to G, read-out: PKC-theta IL2 pIC50 (binned) (converted).
[5] abbreviates: read-out: PKC-theta IL2 pIC50 (converted).
[6] abbreviates: binned A to H, read-out: PKC-theta HTRF pIC50 (binned) (converted).
[7] abbreviates: read-out: PKC-theta HTRF pIC50 (converted).

Read-outs that look alike come from different tables or passages of the source.

On to `CC[C@@H]1CNCCN1c1cc(C(F)(F)F)cc(-c2ccnc3c2[C@](C)(O)C(=O)N3)n1` (single isomer, unassigned) [Example 129], for which the IC50 in experiment [1] (setting [4]) was 3.16 to 10 nM; in experiment [1] (setting [5]) it was 3.98 nM; in experiment [3] (setting [6]), 0.316 to 1 nM; in experiment [3] (setting [7]) it was 0.501 nM. In addition, the PKC-theta/PKC-delta selectivity in experiment [2] is 3. Besides, the “PKC-theta/PKC-delta selectivity (binned)” value in experiment [2] was “F (a ratio of between 1 and 5)”.

Take `C[C@@H]1CN[C@@H](C)CN1c1cc(C(F)(F)F)cc(-c2ccnc3c2C(C)(C)C(=O)N3)n1` [Example 177]: the IC50 is 31.6 to 100 nM in experiment [1] (setting [4]), 63.1 nM in experiment [1] (setting [5]), 3.16 to 10 nM in experiment [3] (setting [6]) and 6.31 nM in experiment [3] (setting [7]). Besides, the PKC-theta/PKC-delta selectivity in experiment [2] is recorded as 24. Moreover, in experiment [2], the “PKC-theta/PKC-delta selectivity (binned)” value is “C (a ratio of between 20 and 30)”.

As for `C[C@H]1CN(c2cc(C(F)(F)F)cc(-c3ccnc4c3[C@](C)(O)C(=O)N4)n2)CCN1` (single isomer, unassigned) [Example 95], the IC50 was 31.6 to 100 nM in experiment [1] (setting [4]), 31.6 nM in experiment [1] (setting [5]), 1 to 3.16 nM in experiment [3] (setting [6]) and 2 nM in experiment [3] (setting [7]). In addition, the PKC-theta/PKC-delta selectivity in experiment [2] was 15. Also, in experiment [2], the “PKC-theta/PKC-delta selectivity (binned)” value is “D (a ratio of between 10 and 20)”.

With `CN1CCN(c2cc(C(F)(F)F)cc(-c3ccnc4c3C(C)(C)C(=O)N4)n2)CC1` [Example 99], the IC50 in experiment [1] (setting [4]) was 316 to 1000 nM; in experiment [1] (setting [5]) it was 794 nM; in experiment [3] (setting [6]), 10 to 31.6 nM; in experiment [3] (setting [7]) it was 31.6 nM. Also, in experiment [2], the PKC-theta/PKC-delta selectivity came out at 22. In addition, in experiment [2], the “PKC-theta/PKC-delta selectivity (binned)” value is “C (a ratio of between 20 and 30)”.

Turning to `CC1(C)C(=O)Nc2nccc(-c3cc(C(F)(F)F)cc(NC4CCNC4)n3)c21` (centres unmarked) [Example 100], the IC50 was over 1000 nM in experiment [1] (setting [4]), 5010 nM in experiment [1] (setting [5]), 31.6 to 100 nM in experiment [3] (setting [6]) and 63.1 nM in experiment [3] (setting [7]). Moreover, the PKC-theta/PKC-delta selectivity in experiment [2] is listed as 30. In experiment [2], the “PKC-theta/PKC-delta selectivity (binned)” value is “B (a ratio of between 30 and 50)”.

On to `CC[C@H]1CN(c2ccc(Cl)c(-c3ccnc4c3[C@](C)(O)C(=O)N4)n2)CCN1` (single isomer, unassigned) [Example 128], for which the IC50 in experiment [1] (setting [4]) is 100 to 316 nM; in experiment [1] (setting [5]) it was 316 nM; in experiment [3] (setting [6]), 10 to 31.6 nM; in experiment [3] (setting [7]), 25.1 nM. The PKC-theta/PKC-delta selectivity in experiment [2] stood at 5. Further, the “PKC-theta/PKC-delta selectivity (binned)” value in experiment [2] was “F (a ratio of between 1 and 5)”.

Turning to `C[C@H]1CNCCN1c1cc(F)cc(-c2ccnc3c2C(C)(C)C(=O)N3)c1` [Example 30], the IC50 was 316 to 1000 nM in experiment [1] (setting [4]), 794 nM in experiment [1] (setting [5]), 31.6 to 100 nM in experiment [3] (setting [6]) and 31.6 nM in experiment [3] (setting [7]). The PKC-theta/PKC-delta selectivity in experiment [2] was found to be 2. The “PKC-theta/PKC-delta selectivity (binned)” value in experiment [2] is “F (a ratio of between 1 and 5)”.

Take `C[C@H]1CN(c2cc(Cl)cc(-c3ccnc4c3C(C)(O)C(=O)N4)c2)CCN1` (some centres unmarked) [Example 75]: the IC50 in experiment [1] (setting [4]) is 100 to 316 nM; in experiment [1] (setting [5]), 158 nM; in experiment [3] (setting [6]), 3.16 to 10 nM; in experiment [3] (setting [7]), 7.94 nM. Also, the PKC-theta/PKC-delta selectivity in experiment [2] was found to be 11. Moreover, the “PKC-theta/PKC-delta selectivity (binned)” value in experiment [2] was “D (a ratio of between 10 and 20)”.

As to `O=c1[nH]c2nccc(-c3cccc(CN4CCNCC4)c3)c2[nH]1` [Example 20], the IC50 is over 1000 nM in experiment [1] (setting [4]), 10000 nM in experiment [1] (setting [5]), over 1000 nM in experiment [3] (setting [6]) and 3980 nM in experiment [3] (setting [7]). Further, the “PKC-theta/PKC-delta selectivity (binned)” value in experiment [2] is on record as “G (a ratio of 0 to 1)”.

For `CC1(C)C(=O)Nc2nccc(-c3cc(C(F)(F)F)cc(N4CCNC(C(C)(C)O)C4)n3)c21` (centres unmarked) [Example 124], the IC50 was 100 to 316 nM in experiment [1] (setting [4]), 158 nM in experiment [1] (setting [5]), 3.16 to 10 nM in experiment [3] (setting [6]) and 3.98 nM in experiment [3] (setting [7]). The PKC-theta/PKC-delta selectivity in experiment [2] came out at 16. Besides, the “PKC-theta/PKC-delta selectivity (binned)” value in experiment [2] was “D (a ratio of between 10 and 20)”.

Regarding `O=C1Nc2nccc(-c3cc(F)cc(N4CCNCC4)c3)c2C12CCC2` [Example 35], the IC50 in experiment [1] (setting [4]) was 316 to 1000 nM; in experiment [1] (setting [5]), 398 nM; in experiment [3] (setting [6]), 31.6 to 100 nM; in experiment [3] (setting [7]), 39.8 nM. The PKC-theta/PKC-delta selectivity in experiment [2] worked out at 3. In addition, the “PKC-theta/PKC-delta selectivity (binned)” value in experiment [2] was “F (a ratio of between 1 and 5)”.

Take `CC1(C)C(=O)Nc2nccc(-c3cccc(OC4CCNCC4)c3)c21` [Example 47]: the IC50 in experiment [1] (setting [4]) is over 1000 nM; in experiment [1] (setting [5]) it was 2510 nM; in experiment [3] (setting [6]), 100 to 316 nM; in experiment [3] (setting [7]) it was 316 nM. Moreover, the PKC-theta/PKC-delta selectivity in experiment [2] is listed as 2. In addition, the “PKC-theta/PKC-delta selectivity (binned)” value in experiment [2] is “F (a ratio of between 1 and 5)”.

For the molecule `C[C@H]1CCNCCN1c1cc(C(F)(F)F)cc(-c2ccnc3c2C(C)(C)C(=O)N3)n1` [Example 187], the IC50 is 31.6 to 100 nM in experiment [1] (setting [4]), 100 nM in experiment [1] (setting [5]), 3.16 to 10 nM in experiment [3] (setting [6]) and 5.01 nM in experiment [3] (setting [7]). In addition, the PKC-theta/PKC-delta selectivity in experiment [2] is reported as 28. Further, in experiment [2], the “PKC-theta/PKC-delta selectivity (binned)” value was “C (a ratio of between 20 and 30)”.

Consider `CC(C)[C@H]1CN(c2cccc(-c3ccnc4c3C(C)(C)C(=O)N4)c2)CCN1` [Example 50], for which the IC50 in experiment [1] (setting [4]) was over 1000 nM; in experiment [1] (setting [5]) it was 1000 nM; in experiment [3] (setting [6]), 31.6 to 100 nM; in experiment [3] (setting [7]) it was 79.4 nM. In experiment [2], the PKC-theta/PKC-delta selectivity is given as 2. Further, the “PKC-theta/PKC-delta selectivity (binned)” value in experiment [2] was “F (a ratio of between 1 and 5)”.

In the case of `CC1(C)C(=O)Nc2nccc(-c3cc(C(F)F)cc(N4CCNCC4)n3)c21` [Example 87], the IC50 is 100 to 316 nM in experiment [1] (setting [4]), 100 nM in experiment [1] (setting [5]), 3.16 to 10 nM in experiment [3] (setting [6]) and 6.31 nM in experiment [3] (setting [7]). Also, the PKC-theta/PKC-delta selectivity in experiment [2] is given as 10. In addition, the “PKC-theta/PKC-delta selectivity (binned)” value in experiment [2] is “D (a ratio of between 10 and 20)”.

`CC1(C)C(=O)Nc2nccc(-c3cc(Cl)cc(N4CCNCC4)c3)c21` [Example 40]: the IC50 in experiment [1] (setting [4]) was 316 to 1000 nM; in experiment [1] (setting [5]), 398 nM; in experiment [3] (setting [6]) it was 31.6 to 100 nM; in experiment [3] (setting [7]), 31.6 nM. The PKC-theta/PKC-delta selectivity in experiment [2] was determined as 4. In addition, the “PKC-theta/PKC-delta selectivity (binned)” value in experiment [2] was “F (a ratio of between 1 and 5)”.

Turning to `CC1(Cc2ccccc2)C(=O)Nc2nccc(-c3cccc(N4CCNCC4)c3)c21` (centres unmarked) [Example 49], the IC50 in experiment [1] (setting [4]) is over 1000 nM; in experiment [1] (setting [5]), 3980 nM; in experiment [3] (setting [6]) it was 316 to 1000 nM; in experiment [3] (setting [7]) it was 1000 nM. For the same molecule, the PKC-theta/PKC-delta selectivity in experiment [2] worked out at 1. In addition, the “PKC-theta/PKC-delta selectivity (binned)” value in experiment [2] is “F (a ratio of between 1 and 5)”.

Turning to `CC1C(=O)Nc2nccc(-c3cc(N4CCNCC4)cc(C(F)(F)F)c3)c21` (centres unmarked) [Example 25], the IC50 in experiment [1] (setting [4]) is 316 to 1000 nM; in experiment [1] (setting [5]), 501 nM; in experiment [3] (setting [6]), 31.6 to 100 nM; in experiment [3] (setting [7]), 50.1 nM. Also, the PKC-theta/PKC-delta selectivity in experiment [2] is 7. Further, the “PKC-theta/PKC-delta selectivity (binned)” value in experiment [2] is “E (a ratio of between 5 and 10)”.

For `O=c1[nH]c2nccc(-c3cccc(N4CCNCC4c4cccnc4)c3)c2[nH]1` (centres unmarked) [Example 12], the IC50 in experiment [1] (setting [4]) was over 1000 nM; in experiment [1] (setting [5]) it was 10000 nM; in experiment [3] (setting [6]), over 1000 nM; in experiment [3] (setting [7]) it was 5010 nM. Besides, the PKC-theta/PKC-delta selectivity in experiment [2] turned out to be 1. Also, the “PKC-theta/PKC-delta selectivity (binned)” value in experiment [2] is “G (a ratio of 0 to 1)”.
